# Test results: patent US9238812B2, “Agent for suppressing expression of dominant mutant gene” (LSIP, LLC, priority 2010, dated 2016)
# r = 2'-OH (RNA)
# System: PC3 cells
# Assay: Cell death (apoptosis) evaluation, caspase 3/7 activity
# Type: cell-based, human
# Settings: culture day 4, compared with No siRNA and siControl
# Method: PC3 cells were cultured in the same way as in “Example 2(1)”.
# Electroporation was performed in the same way as in “Example 2(2)”.
# The cells were cultured (cell density: approximately 3×10^4 cells/well) in a 96-well culture plate using the culture solution of the paragraph (1). One day and 4 days later, the cells were subjected to each evaluation experiment. si747/49-3D19 was also subjected to similar evaluation experiments, together with a control, 2 days and 6 days after the cell culture.
# In order to evaluate the cell death (apoptosis) of PC3 cells after the introduction of si747/49-3D19, caspase 3/7 activity was measured using Caspase-Glo 3/7 Assay (Promega Corp.). The experimental procedures followed the protocol included in the product. Luminescence intensity was measured using Fusion Universal Microplate Analyzer (Perkin Elmer Inc.). The negative controls used were the same two controls (No siRNA and siControl) as in the cell growth ability assay.
substance,measurement,value
"si747/49-3D19: siRNA against EGFR del(L747-E749)-A750P(G) mutant gene; ss SEQ ID NO 55, as SEQ ID NO 56, 3′ UU added (sense GUCGCUAUCAAGGAGCCAA; antisense UUGGCUCCUUGAUAGCGAC; RNA, 3' rUrU, backbone not given here; listed as Homo sapiens)",caspase 3/7 activity (apoptosis),did not cause significant change
